Source: patent US10590147B1, “Spirooxindole-pyrrolothiazole heterocyclic hybrids” (KING SAUD UNIVERSITY, priority 2019, dated 2020)
≈ marks a conversion by molar mass, not a printed value. Where “and” joins values, the source holds several entries; their conditions need not be identical. Equal entries are not always repeated. Entries after “also recorded” stand apart in the source; their conditions may differ. Where two headings read alike, the source gives them in different places.

What was measured:
Assay type in all cases: cell-based
Pseudomonas aeruginosa [1] = assay: Disc diffusion, zone of inhibition; set-up: key to Zone of inhibition (class): R: Resistant; conditions: drug-resistant P. aeruginosa; for Zone of inhibition: diameter: 37° C., 24h
Protocol: (§1) The qualitative screenings of antimicrobial activity were measured by plating in petri dishes to determine the formation of zones of inhibition for bacterial pathogens tested against compounds 6a, 6b and the standard antibiotic ampicillin.
(§2) The quantitative and qualitative screening of anti-bacterial activity of compounds 6a and 6b was conducted, the results being described above. Quantitative screening was determined by minimal inhibitory concentration (MIC) and minimal bactericidal concentration (MBC), while qualitative screening was accomplished by disc diffusion method. E. coli (ATCC—25922) and S. epidermis (ATCC 12228) were used as standard strains, and drug-resistant pathogens P. aeruginosa, S. typhi, and S. aureus were used to screen the antimicrobial activity. Gram negative bacteria were maintained on nutrient broth (NB)/agar plates (NA) and gram positive bacteria were maintained on trypticase soy broth (TSB)/agar plates (TSA). The compounds 6a and 6b concentration range was prepared by two-fold dilution in a sterile broth from the stock, using a microtiter 96 well plate method. Twelve dilutions of each compound, ranging from 7500 to 3.65 μg/ml, were tested, and Ampicillin was used as a positive control agent (with a range of 500 to 0.24 μg/ml).
(§3) The mid log bacterial inoculum was speeded on NA/TSA and the loaded disc was placed on agar plates and incubated at 37° C. for 24h. After this period, the inhibitions produced by the compounds around the disc were measured using antibiotic zone scale (Hi-Media, Mumbai, India) and zone of inhibitions were measured in mm.

Staphylococcus aureus [2] = assay: Disc diffusion, zone of inhibition; set-up: key to Zone of inhibition (class): R: Resistant; conditions: drug-resistant S. aureus; for Zone of inhibition: diameter: 37° C., 24h
Protocol: as §1, §2, §3

Salmonella typhi [3] = assay: Disc diffusion, zone of inhibition; set-up: key to Zone of inhibition (class): R: Resistant; conditions: drug-resistant S. typhi; for Zone of inhibition: diameter: 37° C., 24h
Protocol: as §1, §2, §3

Escherichia coli [4] = assay: Disc diffusion, zone of inhibition; conditions: E. coli control strain; for Zone of inhibition: diameter: 37° C., 24h
Protocol: as §1, §2, §3

Staphylococcus epidermis [5] = assay: Disc diffusion, zone of inhibition; conditions: S. epidermis control strain; for Zone of inhibition: diameter: 37° C., 24h
Protocol: as §1, §2, §3

Pseudomonas aeruginosa [6] = assay: MIC/MBC by two-fold dilution, microtiter 96 well plate method; conditions: drug-resistant P. aeruginosa
Protocol: (§4) Compounds 6a and 6b were tested for their antimicrobial activity against both gram positive and gram negative drug-resistant bacteria. Minimum inhibitory concentration (MIC) and minimum bactericidal concentration (MBC) values for compounds 6a and 6b, as compared with a reference antibacterial drug (ampicillin), for Escherichia coli (EC), Pseudomonas aeruginosa (PS), Salmonella typhi (ST), Staphylococcus aureus (SA), and Staphylococcus epidermis (SE) are reported in Tables 2A and 2B.
as §2

Escherichia coli [7] = assay: as above; conditions: E. coli (ATCC—25922), standard/control strain
Protocol: as §4, §2

Staphylococcus aureus [8] = assay: as above; conditions: drug-resistant S. aureus
Protocol: as §4, §2

Salmonella typhi [9] = assay: as above; conditions: drug-resistant S. typhi
Protocol: as §4, §2

Staphylococcus epidermis [10] = assay: as above; conditions: S. epidermis (ATCC 12228), standard/control strain
Protocol: as §4, §2

P. aeruginosa = assay: AO/EB live/dead bacterial double staining; conditions: P. aeruginosa treated at MIC, 4 hours; fluorescent microscope
Protocol: (§5) The acridine orange (AO) and ethidium bromide (EB) double staining method was used to analyse the Live/dead bacterial cells for untreated and compound 6a-treated S. aureus and P. aeruginosa cells. Both sets of cells, treated and untreated for each of the two bacteria, were stained with AO/EB for 15 minutes. The unbound dyes were removed by rinsing the cells twice with phosphate buffer saline (PBS). 10 μl samples of each were then placed on a glass slide with coverslip, and observed using a ZEISS inverted florescent microscope. The untreated gram positive (FIG. 6A) and gram negative (FIG. 6C) bacterial cells appeared green due to the presence of healthy, viable cells with intact/undamaged cell membranes and uniform chromatin. In contrast, the compound 6a-treated cells (treated gram positive in FIG. 6B, and treated gram negative in 6D) appeared red due to the resulting dents, blisters and damaged cell walls on bacterial cells, providing entry for the EB dye. Thus, the AO/EB double staining confirms the bactericidal action of compound 6a through cell wall and cell membrane damage.
(§6) Fluorescent dye stock solution was prepared by dissolving equal quantities of acridine orange (AO) and ethidium bromide (EB)—10 mg each—in 10 ml of PBS. The working solution was prepared by diluting 200 μl of stock solution into 10 ml of PBS. […]

S. aureus = assay: AO/EB live/dead bacterial double staining; conditions: S. aureus treated at MIC, 4 hours; fluorescent microscope
Protocol: as §5, §6

## O=C1C(=Cc2ccccc2F)CNCC12C(c1ccccc1F)C1CSCN1C21C(=O)Nc2ccccc21 (stereo not drawn) [Compound 6b, spiro[5.3″ ]-oxindole-spiro-[6.2′]-6′-(2-fluorophenylmethylidene)tetrahydro-4′(1H)-pyridinone-7-(2-fluorophenyl)tetrahydro-1H-pyrrolo[1,2-c][1,3] thiazole]
Pseudomonas aeruginosa [1]; 120 μg/disc
  Zone of inhibition: diameter: 16.3 ± 1.63 mm
Staphylococcus aureus [2]; 120 μg/disc
  Zone of inhibition: diameter: 17.6 ± 1.47 mm
Salmonella typhi [3]; 120 μg/disc
  Zone of inhibition: diameter: 16.3 ± 1.08 mm
Escherichia coli [4]; 120 μg/disc
  Zone of inhibition: diameter: 18.6 ± 1.47 mm
Staphylococcus epidermis [5]; 120 μg/disc
  Zone of inhibition: diameter: 19.3 mm
Pseudomonas aeruginosa [6]
  MBC: 117.15 µg/mL (≈ 221 µM)
  MIC: 58.55 µg/mL (≈ 111 µM)
Escherichia coli [7]
  MBC: 58.55 µg/mL (≈ 111 µM)
  MIC: 29.25 µg/mL (≈ 55.2 µM)
Staphylococcus aureus [8]
  MBC: 117.15 µg/mL (≈ 221 µM)
  MIC: 68.55 µg/mL (≈ 129 µM)
Salmonella typhi [9]
  MBC: 117.15 µg/mL (≈ 221 µM)
  MIC: 58.55 µg/mL (≈ 111 µM)
Staphylococcus epidermis [10]
  MBC: 58.55 µg/mL (≈ 111 µM)
  MIC: 29.25 µg/mL (≈ 55.2 µM)

## O=C1C(=Cc2ccc(F)cc2)CNCC12C(c1ccc(F)cc1)C1CSCN1C21C(=O)Nc2ccccc21 (stereo not drawn) [Compound 6a, spiro[5.3″ ]-oxindole-spiro-[6.2′]-6′-(4-fluorophenylmethylidene)tetrahydro-4′(1H)-pyridinone-7-(4-fluorophenyl)tetrahydro-1H-pyrrolo[1,2-c][1,3] thiazole]
Pseudomonas aeruginosa [1]; 60 μg/disc
  Zone of inhibition: diameter: 19.3±0.81 mm
Staphylococcus aureus [2]; 60 μg/disc
  Zone of inhibition: diameter: 26.3±0.81 mm
Salmonella typhi [3]; 60 μg/disc
  Zone of inhibition: diameter: 22.3±1.47 mm
Escherichia coli [4]; 60 μg/disc
  Zone of inhibition: diameter: 27.3±1.08 mm
Staphylococcus epidermis [5]; 60 μg/disc
  Zone of inhibition: diameter: 31.3±1.08 mm and 31.3 mm
P. aeruginosa
  Live/dead AO/EB double staining appearance of treated cells: dented, blistered and damaged cell walls; also recorded: appeared red
S. aureus
  Live/dead AO/EB double staining appearance of treated cells: dented, blistered and damaged cell walls; also recorded: appeared red
Pseudomonas aeruginosa [6]
  MBC: 58.55 µg/mL (≈ 111 µM)
  MIC: 29.25 µg/mL (≈ 55.2 µM)
Escherichia coli [7]
  MBC: 29.25 µg/mL (≈ 55.2 µM)
  MIC: 14.62 µg/mL (≈ 27.6 µM)
Staphylococcus aureus [8]
  MBC: 58.55 µg/mL (≈ 111 µM)
  MIC: 29.25 µg/mL (≈ 55.2 µM)
Salmonella typhi [9]
  MBC: 58.55 µg/mL (≈ 111 µM)
  MIC: 29.25 µg/mL (≈ 55.2 µM)
Staphylococcus epidermis [10]
  MBC: 29.25 µg/mL (≈ 55.2 µM)
  MIC: 14.62 µg/mL (≈ 27.6 µM)

## CC1(C)S[C@@H]2[C@H](NC(=O)[C@H](N)c3ccccc3)C(=O)N2[C@H]1C(=O)O [Ampicillin, reference compound]
Pseudomonas aeruginosa [1]; 25 μg/disc
  Zone of inhibition (class): R
Staphylococcus aureus [2]; 25 μg/disc
  Zone of inhibition (class): R
Staphylococcus aureus [2]; Staphylococcus aureus, 25 μg/disc, read-out: Zone of inhibition: diameter
  zone of inhibition at 25 µg/disc: < 13 mm
Salmonella typhi [3]; 25 μg/disc
  Zone of inhibition (class): R
Escherichia coli [4]; Escherichia coli, 25 μg/disc, read-out: Zone of inhibition: diameter
  zone of inhibition at 25 µg/disc: 22.3 ± 1.77 mm
Staphylococcus epidermis [5]; Staphylococcus, 25 μg/disc, read-out: Zone of inhibition: diameter
  zone of inhibition at 25 µg/disc: 23.3 mm
Escherichia coli [7]; Escherichia coli, read-out: MBC
  MBC: 7.81 µg/mL (≈ 22.4 µM)
Escherichia coli [7]; Escherichia coli, read-out: MIC
  MIC: 3.9 µg/mL (≈ 11.2 µM)
Staphylococcus epidermis [10]; Staphylococcus, ATCC12228, read-out: MBC
  MBC: 7.81 µg/mL (≈ 22.4 µM)
Staphylococcus epidermis [10]; Staphylococcus, ATCC12228, read-out: MIC
  MIC: 3.9 µg/mL (≈ 11.2 µM)
